Experimental data reported in patent publication US20260284082A1, “TARGETING THE PANX1-P2Y2R-TRPV4 PATHWAY TO TREAT LUNG ISCHEMIA-REPERFUSION INJURY” (UNIVERSITY OF VIRGINIA PATENT FOUNDATION, priority 2023, published 2026).

Legend:
[1] = test system: pulmonary endothelium of small PAs; assay: Baseline endothelial Ca2+ signaling in en face small PAs after lung IR (Fluo-4 confocal imaging); assay type: cell-based, mice
Experimental: (§1) Murine lung IR model: A well-established left lung IRI model involving temporary in vivo ligation of the left hilum (pulmonary artery, vein, and airway) was used.^6 Briefly, mice were anesthetized with inhaled isoflurane, intubated, ventilated with room air at 150 strokes/min with a tidal volume of […] (Harvard Apparatus Co, South Natick, MA), and heparinized (20 U/kg: Hospira Inc, Lake Forest, IL). An anterolateral thoracotomy was performed through the fourth intercostal space to expose the left hilum. A 6-0 Prolene suture (Ethicon. Somerville, NJ) was passed around the left hilum, and the suture ends were passed through a 5-mm length of polyethylene (PE)-50 tubing. A surgical clip was used to fashion a Rummel tourniquet to provide temporary occlusion of the left hilar structures. The thoracotomy was closed, anesthesia was weaned, and analgesia was administered (intraperitoneal buprenorphine. 0.2 mg/kg). Animals recovered in their cages during the 1-hour ischemic period, after which they were anesthetized again and intubated, the Rummel tourniquet was removed, and the thoracotomy was closed. Animals were again extubated, recovered in their cage, and monitored during the 2-hour reperfusion period. Sham animals underwent the same surgical procedure except that application of the Rummel tourniquet to induce ischemia was omitted; thus, these animals were perfused for a total of 3 hours.
Ca^2+ imaging in Pas: Ca^2+ imaging in small Pas was performed as previously described.8 Fourth-order, small (~50 μm diameter) Pas (see FIG. 1B) were dissected from left lungs in cold HEPES-buffered physiological salt solution (HEPES-PSS; 10 mM HEPES, 134 mM NaCl, 6 mM KCl, 1 mM MgCl2 hexahydrate, 2 mM CaCl2) dihydrate, and 7 mM dextrose; pH adjusted to 7.4 using 1 M NaOH). […] Fluo-4 was excited using a 488-nm solid-state laser, and emitted fluorescence was captured using a 525/36-nm band-pass filter. […] Baseline Ca^2+ signaling activity was recorded in the absence of CPA. […]

TRPV4EC channels = assay: TRPV4 sparklet activity in endothelium of small PAs after lung IR (in presence of CPA); assay type: cell-based, mice
Experimental: as §1, with “Sham animals underwent the same surgical procedure except that application of the Rummel tourniquet to induce ischemia was omitted; thus, these animals were perfused for a total of 3 hours.” left out
Ca^2+ imaging in Pas: Ca^2+ imaging in small Pas was performed as previously described.8 Fourth-order, small (~50 μm diameter) Pas (see FIG. 1B) were dissected from left lungs in cold HEPES-buffered physiological salt solution (HEPES-PSS; 10 mM HEPES, 134 mM NaCl, 6 mM KCl, 1 mM MgCl2 hexahydrate, 2 mM CaCl2) dihydrate, and 7 mM dextrose; pH adjusted to 7.4 using 1 M NaOH). […] Fluo-4 was excited using a 488-nm solid-state laser, and emitted fluorescence was captured using a 525/36-nm band-pass filter. […] Baseline Ca^2+ signaling activity was recorded in the absence of CPA.
TRPV4 sparklets were assessed as increases in fluorescence relative to baseline fluorescence, obtained by averaging 10 quiescent images prior to stimulation. […]

[2] = ARC 10 μmol/L, small PAs of C57BL6/J mice

Row | Structure (SMILES) | increase in baseline endothelial Ca2+ signals after lung IR ([1]; GSK219 100 nM, small PAs of control mice, 1 h ischemia + 2 h reperfusion) | IR-induced increase in TRPV4EC sparklet activity (TRPV4EC channels; GSK219, CPA 20 μM present, small PAs after lung IR) | lung IR-induced increase in baseline endothelial Ca2+ signaling activity [1, 2] | lung IR-induced increase in TRPV4EC sparklet activity (TRPV4EC channels; [2])
1 | O=C(NC1(c2ccccc2)CC1)c1c(CN2CCC(N3CCCCC3)CC2)c(-c2cccc(C(F)(F)F)c2)nc2cc(Br)ccc12 [GSK219, GSK2193874] | completely abolished | inhibited |  | 
2 | Cc1ccc2c(c1)C=Cc1cc(C)ccc1C2c1cn(Cc2ccc(C(=O)Nc3nn[nH]n3)o2)c(=O)[nH]c1=S [ARC, AR-C 118925XX] |  |  | abolished | inhibited
